Assay results published in ChEMBL document CHEMBL1141728, “Transtorine, a new quinoline alkaloid from Ephedra transitoria” (1998).
In brackets after ≈: the same amount, converted by molar mass. Activity calls are given as the source filed them. The calls are words filed in the database; no cut-off is given here.

Key:
[1] = system: Bacillus subtilis; assay: Antibacterial activity against Bacillus subtilis by disk diffusion method
[2] = system: Shigella flexneri; assay: Antibacterial activity against Shigella flexneri by disk diffusion method; type: functional
[3] = system: Pseudomonas aeruginosa; assay: Antibacterial activity against Pseudomonas aeruginosa by disk diffusion method; type: functional
[4] = system: Proteus mirabilis; assay: Antibacterial activity against Proteus mirabilis by disk diffusion method
[5] = system: Staphylococcus aureus; assay: Antibacterial activity against Staphylococcus aureus by disk diffusion method; type: functional
[6] = system: Enterobacter cloacae; assay: Antibacterial activity against Enterobacter cloacae by disk diffusion method; type: functional

MIC [5] [µg/mL] | MIC [6] [µg/mL] | Compound | MIC [1] [µg/mL] | MIC [2] [µg/mL] | MIC [3] [µg/mL] | MIC [4] [µg/mL] | Activity [2]
– | – | O=C(O)c1cn(C2CC2)c2cc(N3CCNCC3)c(F)cc2c1=O [CIPROFLOXACIN] | 20 (≈ 60.4 µM) | 20 (≈ 60.4 µM) | 20 (≈ 60.4 µM) | 20 (≈ 60.4 µM) | –
380 (≈ 2010 µM) | 450 (≈ 2380 µM) | O=C(O)c1cc(=O)c2ccccc2[nH]1 [TRANSTORINE] | – | – | 500 (≈ 2640 µM) | – | inactive
